Consider 32 molecules from patent US11806326B2, “Methods for dopamine modulation in human neurologic diseases” (priority 2018, dated 2023).

pIC50: −log10 of the molar value. Read-outs that look alike come from different tables or passages of the source. Some results are limits rather than exact numbers.

The subject of data set [1] is tyrosine hydroxylase. The conditions noted are these: cited from earlier work.
In data set [2] the target is T1, tyrosine hydroxylase (Bos taurus, UniProt P17289).
T1 construct: in bovine adrenal gland preparations; from tissue; host or cells: bovine (beef) adrenal gland
T1 sequence (P17289 1-491): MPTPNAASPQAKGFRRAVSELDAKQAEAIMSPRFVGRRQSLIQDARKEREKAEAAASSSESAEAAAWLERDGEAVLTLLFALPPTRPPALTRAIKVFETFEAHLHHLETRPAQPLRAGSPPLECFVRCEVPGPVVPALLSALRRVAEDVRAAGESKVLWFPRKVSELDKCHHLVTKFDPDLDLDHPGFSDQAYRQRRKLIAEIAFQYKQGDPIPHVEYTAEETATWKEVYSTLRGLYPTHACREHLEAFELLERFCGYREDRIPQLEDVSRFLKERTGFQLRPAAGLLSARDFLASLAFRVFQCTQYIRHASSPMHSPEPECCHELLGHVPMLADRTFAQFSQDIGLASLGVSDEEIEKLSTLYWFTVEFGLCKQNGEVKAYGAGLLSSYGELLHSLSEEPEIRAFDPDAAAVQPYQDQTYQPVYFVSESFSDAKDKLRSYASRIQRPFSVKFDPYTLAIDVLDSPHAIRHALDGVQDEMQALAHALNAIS
The conditions noted are these: cited from earlier work.

Data set [3] relates to dopaminergic iPS cells originating from DJ-1 homozygous Parkinson's patients. As to the kind of experiment: Chronic inhibition of dopamine synthesis in dopaminergic iPS cells from DJ-1 homozygous Parkinson's patients. The data set is classed as cell-based, human. The conditions noted are these: chronic AMPT treatment, FIG. 5.
For data set [4] the following is noted: delivered orally, cited from earlier work.
Data set [5] has as its target tyrosine hydroxylase (Homo sapiens, UniProt P07101). The conditions noted are these: cited from earlier work.
Data set [6] has as its system spontaneously hypertensive rats. To be noted: cited from earlier work.
The mark [7] stands for this setting: Table 1B, concentration 10^−4 M.
The mark [8] stands for this setting: Table 1A, amino acid analogs inhibiting tyrosine hydroxylase, read-out: Concentration for 50% Inhibition.
The mark [9] stands for this setting: Table 1A, concentration 10^−4 M.
Where [10] appears, read: Table 1B, catecholamine analogs inhibiting tyrosine hydroxylase, read-out: Concentration for 50% Inhibition.

Chain of tyrosine hydroxylase (Homo sapiens, UniProt P07101) (P07101 whole entry): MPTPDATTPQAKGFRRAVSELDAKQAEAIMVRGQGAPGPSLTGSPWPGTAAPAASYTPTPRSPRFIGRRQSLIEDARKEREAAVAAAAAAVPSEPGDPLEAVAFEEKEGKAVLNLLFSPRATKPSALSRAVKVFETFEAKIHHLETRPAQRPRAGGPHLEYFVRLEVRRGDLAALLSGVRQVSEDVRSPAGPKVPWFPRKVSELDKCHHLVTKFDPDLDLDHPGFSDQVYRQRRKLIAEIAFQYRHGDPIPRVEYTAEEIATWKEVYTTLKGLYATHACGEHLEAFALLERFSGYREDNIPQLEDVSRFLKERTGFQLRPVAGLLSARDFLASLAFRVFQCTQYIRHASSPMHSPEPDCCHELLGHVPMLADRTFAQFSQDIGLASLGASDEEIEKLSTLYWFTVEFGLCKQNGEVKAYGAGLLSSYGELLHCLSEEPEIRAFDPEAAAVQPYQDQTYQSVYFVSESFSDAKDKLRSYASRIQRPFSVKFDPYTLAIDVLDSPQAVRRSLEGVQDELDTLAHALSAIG

Consider `CNC[C@H](O)c1ccc(O)c(O)c1` [L-epinephrine], for which, in the data set with tyrosine hydroxylase [1] (setting [7]), the “% Inhibition” value is given as 35%.

Turning to `COc1ccc(CC(C)(N)C(=O)O)cc1Cl` (racemic) [3-chloro-4-methoxy-α-methyl-DL-phenylalanine], the pIC50 at tyrosine hydroxylase [2] (setting [8]) was 3.30. Take `NC(Cc1ccc(F)cc1)C(=O)O` (racemic) [DL-p-fluoro-phenylalanine]: the “% Inhibition” value in the data set on tyrosine hydroxylase [1] (setting [9]) was 61%. Take `CC(N)(Cc1ccc(O)c(Cl)c1)C(=O)O` (racemic) [3-chloro-α-methyl-DL-tyrosine]: the pIC50 at tyrosine hydroxylase [2] (setting [8]) is 5.30.

On to `N[C@H](Cc1ccc(O)c(O)c1)C(=O)O` [D-dopa], for which the “% Inhibition” value in the data set on tyrosine hydroxylase [1] (setting [7]) is given as 0%.

For the molecule `CC(N)(Cc1ccccc1)C(=O)O` (racemic) [α-methyl-DL-phenylalanine], at tyrosine hydroxylase [2] (setting [8]), the pIC50 is 4.10.

For the molecule `N[C@H](Cc1c[nH]c2ccccc12)C(=O)O` [D-tryptophan], the “% Inhibition” value with tyrosine hydroxylase [1] (setting [9]) is given as 0%. Take `N[C@@H](Cc1cc(Br)c(O)c(Br)c1)C(=O)O` [3,5-dibromo -L-tyrosine]: on tyrosine hydroxylase [2] (setting [8]), the pIC50 is 3.30.

For the molecule `N[C@@H](Cc1ccc(O)c(Cl)c1)C(=O)O` [3-chloro-L-tyrosine], on tyrosine hydroxylase [2] (setting [8]), the pIC50 is 5.00. `NC[C@@H](O)c1ccc(O)c(O)c1` [L-norepinephrine]: on tyrosine hydroxylase [2] (setting [10]), the pIC50 was 3.00.

As to `C[C@@](N)(Cc1ccc(O)cc1)C(=O)O` [α-methyl-D-tyrosine], the pIC50 on tyrosine hydroxylase [2] (setting [8]) is under 3.00. As for `C[C@@](N)(Cc1ccc(O)c(O)c1)C(=O)O` [α-methyl-3,4-dhydroxy-D-phenylalanine], the pIC50 on tyrosine hydroxylase [2] (setting [10]) was under 2.10. Turning to `CC(N)(Cc1ccc(O)c(F)c1)C(=O)O` (racemic) [3-fluoro-α-methyl-DL-tyrosine], the pIC50 on tyrosine hydroxylase [2] (setting [8]) was 3.70. Turning to `N[C@@H](Cc1ccccc1)C(=O)O` [L-phenylalanine], the pIC50 at tyrosine hydroxylase [2] (setting [8]) was 3.70. For the same molecule, the “% Inhibition” value in the data set with tyrosine hydroxylase [1] (setting [9]) is reported as 78%.

Regarding `N[C@@H](Cc1ccc(O)c(O)c1)C(=O)O` [L-dopa], the “% Inhibition” value in the data set with tyrosine hydroxylase [1] (setting [7]) was 68%. On to `CC(N)(Cc1ccc(O)c(Br)c1)C(=O)O` (racemic) [3-bromo-α-methyl-DL-tyrosine], for which the pIC50 on tyrosine hydroxylase [2] (setting [8]) is 5.82. As to `N[C@H](Cc1ccccc1)C(=O)O` [D-phenylalanine], the pIC50 at tyrosine hydroxylase [2] (setting [8]) was under 3.00. For the same molecule, the “% Inhibition” value in the data set on tyrosine hydroxylase [1] (setting [9]) was 7%. Consider `C[C@](N)(Cc1ccc(O)cc1)C(=O)O` [α-methyl-L-tyrosine], for which, in data set [3], the “deposition of α-synuclein” value is “blunted deposition of α-synuclein”, the “levels of oxidized dopamine” value was “lower levels of oxidized dopamine” and the oxidative stress result is “reduced oxidative stress”. Besides, at tyrosine hydroxylase [2] (bovine adrenal gland preparations, read-out: concentration inhibiting tyrosine hydroxylase by 50%), the pIC50 was 4.60. The “% Inhibition” value in the data set on tyrosine hydroxylase [1] (setting [9]) is given as 86%. Moreover, in the data set with tyrosine hydroxylase [1] (concentration of 10^−4M, guinea pig brain particle preparations), the “inhibition of tyrosine hydroxylase” value is 86%. For the same molecule, the “metabolites recovered in the urine” value in data set [4] (alpha-methyl-dopa, alpha-methyl-dopamine, alpha-methyl-norepinephrine) was “relatively little”. Besides, the oral absorption in data set [4] is reported as about 69%.

Turning to `C[C@H]1O[C@@H](c2ccc3c(c2O)C(=O)C2=C(C3=O)[C@@]3(O)C(=O)C[C@](C)(O)C[C@@]3(O)C=C2)C[C@@H](O)[C@@H]1O` [aquayamycin], the “potency as tyrosine hydroxylase inhibitor (in words)” value on tyrosine hydroxylase [5] (compared with 3-iodo-α-methyl-DL-tyrosine) was “near that reported for 3-iodo-α-methyl-DL-tyrosine”. Turning to `CCC[C@H]1CCC(=C2C(=O)CCC2=O)O1` [Oudenone, oudenone], the “tyrosine hydroxylase inhibition (in words)” value at tyrosine hydroxylase [5] (directly measured) is “inhibit tyrosine hydroxylase”. In addition, in data set [6], the “effect on blood pressure” value was “reduce blood pressure”. Regarding `N[C@@H](Cc1c[nH]c2ccccc12)C(=O)O` [L-tryptophan], the pIC50 at tyrosine hydroxylase [2] (setting [8]) is under 3.00. Moreover, the “% Inhibition” value in the data set with tyrosine hydroxylase [1] (setting [9]) is 50%. Take `N[C@@H](Cc1ccc(O)c(O)c1)C(=O)O` [3,4-hydroxy-L-phenylalanine]: at tyrosine hydroxylase [2] (setting [10]), the pIC50 was 2.70. In the case of `NCCc1ccc(O)c(O)c1` [dopamine], the “% Inhibition” value in the data set with tyrosine hydroxylase [1] (setting [7]) is reported as 56%. For `CC(N)(Cc1ccc(O)c(I)c1)C(=O)O` (racemic) [3-iodo-α-methyl-DL-tyrosine], the pIC50 at tyrosine hydroxylase [2] (setting [8]) is 6.52. With `C[C@](N)(Cc1ccc(O)c(O)c1)C(=O)O` [α-methyl-3,4-dhydroxy-L-phenylalanine], the pIC50 at tyrosine hydroxylase [2] (setting [10]) is 2.82. Consider `CNC[C@H](O)c1ccc(O)c(O)c1` [D-epinephrine], for which the “% Inhibition” value in the data set with tyrosine hydroxylase [1] (setting [7]) is 47%. In the case of `NC(=O)Cc1ccc(O)c(O)c1` [3,4-dihydroxyphenyl-acetamide], at tyrosine hydroxylase [2] (setting [10]), the pIC50 is 3.00. Take `N[C@@H](Cc1ccc(O)c(I)c1)C(=O)O` [3-iodo-L-tyrosine]: on tyrosine hydroxylase [2] (setting [8]), the pIC50 is 6.30.

For the molecule `CC(N)(Cc1cccc(O)c1)C(=O)O` (racemic) [α-methyl-m-DL-tyrosine], the pIC50 on tyrosine hydroxylase [2] (setting [8]) was under 3.00. In addition, the “% Inhibition” value in the data set with tyrosine hydroxylase [1] (Table 1A, concentration 2 × 10−4 M) is listed as 92%.

Turning to `NC[C@H](O)c1ccc(O)c(O)c1` (racemic) [DL-norepinephrine], in the data set on tyrosine hydroxylase [1] (Table 1B, concentration 2 × 10^−4 M), the “% Inhibition” value is 53%. With `N[C@H](Cc1ccc(O)c(O)c1)C(=O)O` [3,4-hydroxy-D-phenylalanine], on tyrosine hydroxylase [2] (setting [10]), the pIC50 was under 2.40. For the molecule `CCCC(C(N)=O)c1ccc(O)c(O)c1` (stereo not drawn) [3,4-dihydroxyphenyl-propyl-acetamide], the pIC50 at tyrosine hydroxylase [2] (setting [10]) was 4.70. The “% Inhibition” value in the data set on tyrosine hydroxylase [1] (setting [7]) is 84%.
